Reference: paper PMC10559933 (The Prostate, 2023)
Where “and” joins values, the source holds several entries; their conditions need not be identical. Equal values may be shown once. Read-outs that look alike come from different tables or passages of the source. One block for each molecule: values may come before it.

How the values were obtained:
[1] = biological target: T1, Human Aryl Hydrocarbon Receptor (AHR) (Homo sapiens, UniProt P35869); experiment: Cell-based luciferase reporter gene assay driven by AHR-responsive promoter
T1 sequence (P35869 11-848): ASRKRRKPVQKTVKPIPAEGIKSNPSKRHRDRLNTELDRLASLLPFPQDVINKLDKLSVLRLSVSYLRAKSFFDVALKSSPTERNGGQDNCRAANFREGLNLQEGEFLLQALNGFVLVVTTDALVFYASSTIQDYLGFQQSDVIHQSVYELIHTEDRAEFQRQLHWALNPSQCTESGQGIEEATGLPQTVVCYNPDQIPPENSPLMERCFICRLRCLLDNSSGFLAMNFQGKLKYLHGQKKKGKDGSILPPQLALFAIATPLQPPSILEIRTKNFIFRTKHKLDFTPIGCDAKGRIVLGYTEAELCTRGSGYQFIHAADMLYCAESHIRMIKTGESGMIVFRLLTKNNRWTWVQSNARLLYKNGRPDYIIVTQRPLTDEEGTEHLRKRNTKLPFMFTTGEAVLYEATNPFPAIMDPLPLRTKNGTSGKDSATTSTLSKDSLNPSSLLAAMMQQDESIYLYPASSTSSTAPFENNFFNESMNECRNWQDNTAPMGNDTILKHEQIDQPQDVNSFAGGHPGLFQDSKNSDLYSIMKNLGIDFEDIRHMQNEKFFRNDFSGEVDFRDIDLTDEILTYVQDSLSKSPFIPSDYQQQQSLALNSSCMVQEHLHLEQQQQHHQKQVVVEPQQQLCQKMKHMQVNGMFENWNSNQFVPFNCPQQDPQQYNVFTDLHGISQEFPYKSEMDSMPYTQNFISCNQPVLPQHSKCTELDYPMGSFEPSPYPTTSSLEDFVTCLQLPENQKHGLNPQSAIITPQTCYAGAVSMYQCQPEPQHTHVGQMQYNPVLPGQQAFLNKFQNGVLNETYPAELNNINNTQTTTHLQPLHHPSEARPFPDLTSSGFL

[2] = test system: LNCaP cells; experiment: In vitro growth of LNCaP parental vs HDAC4 KD cells, normoxia vs hypoxia; format: cell-based, human; conditions: TasQ 10 μM
[3] = test system: CWR22-RH human prostate cancer PDXs; experiment: In vivo growth of CWR22-RH PDX in castrate NSG mice; set-up: species or system human xenograft in NSG mice
[4] = test system: thymus; experiment: AHR agonist induced thymus regression in FVB male mice; format: in vivo; conditions: for thymus weight: oral 10 mg/kg/d for 14 days, vehicle 72 +/− 3 (>70)
[5] = test system: liver Cyp1a1; experiment: Liver Cyp1a1 induction in mice; format: in vivo
[6] = test system: LvCaP-3 human prostate cancer PDXs; experiment: In vivo growth of LvCaP-3 PDX in castrate mice; set-up: species or system human xenograft in mice; conditions: oral 10 mg/kg/d
[7] = biological target: fl-NCoR1 protein (Homo sapiens, UniProt O75376); experiment: SPR: TasQ in solution binding to immobilized fl-NCoR1
[8] = biological target: fl-HDAC4 (Homo sapiens, UniProt P56524); experiment: HDAC4 enzymatic assay with Lys; format: biochemical; conditions: Lys(TFA)-AMC substrate
[9] = biological target: fl-wild-type HDAC4 (Homo sapiens, UniProt P56524); experiment: SPR competition: TasQ in solution vs immobilized TasQ for fl-wild-type HDAC4; format: binding
[10] = biological target: fl-R681A/R798A double mutant HDAC4 protein (Homo sapiens, UniProt P56524, R681A/R798A); experiment: SPR competition: TasQ in solution vs immobilized TasQ for mutant HDAC4; format: binding
[11] = test system: human umbilical vein endothelial cells (HUVECs); experiment: Three dimensional; format: cell-based; conditions: CM-supplemented 3D cultures, 10 μM
[12] = test system: CWR-22Rv1 xenografts; format: in vivo, human xenograft in mice; conditions: oral 10 mg/kg/d
[13] = test system: CWR22-RH PDXs; experiment: RNA sequencing of in vivo growing CWR22-RH PDX; set-up: species or system human xenograft in mice; conditions: oral 10 mg/kg/d vs vehicle, castrate hosts
[14] = cited from earlier work
[15] = test system: metastatic castration-resistant prostate cancer (mCRPC); conditions: cited from earlier work
[16] = test system: prostate cancer xenografts; conditions: oral 10 mg/kg/d, cited from earlier work
[17] = test system: HIF-1α protein; conditions: daily oral 10 mg/kg/d; cited from earlier work
[18] = test system: prostate cancer xenografts; conditions: cited from earlier work
[19] = cited from earlier work; remark: listed apart in the source
[20] = biological target: human AHR (Homo sapiens, UniProt P35869); experiment: Photo-affinity label; conditions: competitive PAL AHR binding assay
[21] = Serum pharmacokinetics after oral gavage in mice; format: in vivo
[22] = biological target: nuclear MEF2/HDAC4/NCoR1 (Homo sapiens, UniProt P56524); experiment: Nuclear NCoR1 immunoprecipitated with MEF-2 in CWR-22Rv1 cells under hypoxia; format: cell-based; conditions: discussion summary
[23] = test system: 68 kinases; experiment: Targeted kinase screen; format: biochemical; conditions: 10 μM
[24] = Water solubility; format: physicochemical
[25] = biological target: immobilized fl-HDAC4 (Homo sapiens, UniProt P56524); experiment: SPR: compound in solution binding to immobilized fl-HDAC4; conditions: at >30 μM in solution, Zn2+ present
[26] = phase 1B, TasQ combined with cabazitaxel, RECIST

Chain of fl-HDAC4 (P56524 whole entry): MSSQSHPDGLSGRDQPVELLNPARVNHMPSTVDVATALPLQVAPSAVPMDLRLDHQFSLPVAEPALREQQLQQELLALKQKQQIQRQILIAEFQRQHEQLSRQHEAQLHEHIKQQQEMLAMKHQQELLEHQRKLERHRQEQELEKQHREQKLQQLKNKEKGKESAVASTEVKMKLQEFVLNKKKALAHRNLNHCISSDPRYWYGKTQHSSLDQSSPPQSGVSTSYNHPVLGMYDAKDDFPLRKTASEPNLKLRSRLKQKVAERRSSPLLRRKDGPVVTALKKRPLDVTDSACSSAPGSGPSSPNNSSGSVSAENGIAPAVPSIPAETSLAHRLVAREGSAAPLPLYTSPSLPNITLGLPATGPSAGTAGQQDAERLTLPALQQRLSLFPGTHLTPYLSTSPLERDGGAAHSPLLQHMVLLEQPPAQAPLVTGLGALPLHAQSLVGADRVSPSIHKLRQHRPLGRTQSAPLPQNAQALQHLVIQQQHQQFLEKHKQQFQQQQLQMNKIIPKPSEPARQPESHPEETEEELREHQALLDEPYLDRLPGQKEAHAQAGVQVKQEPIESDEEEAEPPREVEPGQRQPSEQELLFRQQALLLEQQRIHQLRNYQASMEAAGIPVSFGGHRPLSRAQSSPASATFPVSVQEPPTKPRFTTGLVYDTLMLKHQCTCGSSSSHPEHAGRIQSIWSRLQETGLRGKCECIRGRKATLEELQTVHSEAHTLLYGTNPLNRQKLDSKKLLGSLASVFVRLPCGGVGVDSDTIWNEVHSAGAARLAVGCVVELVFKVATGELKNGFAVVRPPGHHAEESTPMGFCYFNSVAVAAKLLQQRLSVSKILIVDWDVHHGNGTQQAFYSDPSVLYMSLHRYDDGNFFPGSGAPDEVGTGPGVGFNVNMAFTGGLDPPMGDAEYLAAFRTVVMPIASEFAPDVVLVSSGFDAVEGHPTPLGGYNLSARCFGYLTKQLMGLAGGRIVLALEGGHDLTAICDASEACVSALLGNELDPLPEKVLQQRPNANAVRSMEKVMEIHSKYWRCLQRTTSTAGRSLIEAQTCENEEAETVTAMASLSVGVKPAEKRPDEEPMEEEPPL
Chain of fl-NCoR1 protein (O75376 whole entry): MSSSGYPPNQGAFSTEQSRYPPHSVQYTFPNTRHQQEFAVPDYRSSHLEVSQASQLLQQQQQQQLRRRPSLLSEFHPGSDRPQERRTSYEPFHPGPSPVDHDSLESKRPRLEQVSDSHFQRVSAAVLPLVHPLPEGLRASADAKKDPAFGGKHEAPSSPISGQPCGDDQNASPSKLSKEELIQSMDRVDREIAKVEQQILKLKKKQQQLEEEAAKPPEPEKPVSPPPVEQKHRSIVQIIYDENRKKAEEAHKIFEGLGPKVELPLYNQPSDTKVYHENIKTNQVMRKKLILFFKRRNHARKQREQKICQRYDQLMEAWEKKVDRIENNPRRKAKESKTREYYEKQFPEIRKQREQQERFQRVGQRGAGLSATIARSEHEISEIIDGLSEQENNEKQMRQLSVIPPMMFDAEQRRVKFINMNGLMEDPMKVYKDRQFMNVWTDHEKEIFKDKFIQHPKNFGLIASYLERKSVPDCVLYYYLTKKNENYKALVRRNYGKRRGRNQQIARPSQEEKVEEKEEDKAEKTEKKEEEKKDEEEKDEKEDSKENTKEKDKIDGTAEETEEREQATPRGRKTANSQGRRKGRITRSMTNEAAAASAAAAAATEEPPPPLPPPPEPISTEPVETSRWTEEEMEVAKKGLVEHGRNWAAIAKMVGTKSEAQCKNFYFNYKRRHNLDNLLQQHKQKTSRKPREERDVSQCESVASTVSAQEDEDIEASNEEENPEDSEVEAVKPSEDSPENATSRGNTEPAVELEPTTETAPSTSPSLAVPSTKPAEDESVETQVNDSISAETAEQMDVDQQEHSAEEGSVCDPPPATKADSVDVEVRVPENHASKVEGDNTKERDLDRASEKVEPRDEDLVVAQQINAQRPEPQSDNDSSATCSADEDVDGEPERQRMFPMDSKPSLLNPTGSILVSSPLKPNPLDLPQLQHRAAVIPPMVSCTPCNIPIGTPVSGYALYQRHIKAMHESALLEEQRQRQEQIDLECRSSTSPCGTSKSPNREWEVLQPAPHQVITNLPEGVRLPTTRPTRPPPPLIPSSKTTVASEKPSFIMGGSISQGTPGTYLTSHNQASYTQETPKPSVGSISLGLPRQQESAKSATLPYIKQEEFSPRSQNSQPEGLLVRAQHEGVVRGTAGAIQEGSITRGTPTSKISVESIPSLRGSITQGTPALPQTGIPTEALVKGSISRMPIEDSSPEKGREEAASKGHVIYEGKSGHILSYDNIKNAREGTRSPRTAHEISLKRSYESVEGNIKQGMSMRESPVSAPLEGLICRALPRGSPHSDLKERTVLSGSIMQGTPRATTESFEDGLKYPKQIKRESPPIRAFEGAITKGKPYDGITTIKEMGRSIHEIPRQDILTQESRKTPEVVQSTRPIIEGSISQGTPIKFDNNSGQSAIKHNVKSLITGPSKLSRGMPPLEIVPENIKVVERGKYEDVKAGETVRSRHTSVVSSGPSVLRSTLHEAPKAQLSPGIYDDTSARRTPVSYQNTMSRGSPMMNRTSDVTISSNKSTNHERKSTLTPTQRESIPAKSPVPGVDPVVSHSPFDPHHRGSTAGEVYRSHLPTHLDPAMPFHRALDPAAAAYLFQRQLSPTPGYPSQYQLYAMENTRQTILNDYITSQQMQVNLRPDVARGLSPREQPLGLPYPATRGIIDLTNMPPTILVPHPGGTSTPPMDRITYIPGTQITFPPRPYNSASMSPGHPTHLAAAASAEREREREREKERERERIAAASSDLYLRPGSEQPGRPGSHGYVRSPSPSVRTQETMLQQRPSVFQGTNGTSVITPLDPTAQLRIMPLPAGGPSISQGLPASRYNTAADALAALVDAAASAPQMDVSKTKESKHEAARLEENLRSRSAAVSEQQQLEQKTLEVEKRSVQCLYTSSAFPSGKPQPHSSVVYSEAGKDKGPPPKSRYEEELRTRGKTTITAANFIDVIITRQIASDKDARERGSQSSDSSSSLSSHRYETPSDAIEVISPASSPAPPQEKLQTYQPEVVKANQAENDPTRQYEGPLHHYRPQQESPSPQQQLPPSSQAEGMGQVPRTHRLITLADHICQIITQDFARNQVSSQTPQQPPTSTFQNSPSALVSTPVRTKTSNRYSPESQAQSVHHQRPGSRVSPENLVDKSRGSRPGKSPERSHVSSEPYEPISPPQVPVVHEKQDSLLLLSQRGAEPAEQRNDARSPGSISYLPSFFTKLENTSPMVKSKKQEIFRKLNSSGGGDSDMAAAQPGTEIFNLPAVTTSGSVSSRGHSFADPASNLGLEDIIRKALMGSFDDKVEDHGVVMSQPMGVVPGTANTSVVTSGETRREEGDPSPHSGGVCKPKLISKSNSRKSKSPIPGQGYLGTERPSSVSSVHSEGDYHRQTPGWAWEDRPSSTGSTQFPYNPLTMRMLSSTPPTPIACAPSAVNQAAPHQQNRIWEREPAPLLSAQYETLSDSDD
Chain of fl-R681A/R798A double mutant HDAC4 protein (P56524 whole entry R681A/R798A): as the sequence (P56524 whole entry) above, with R681A, R798A counted along it
Chain of fl-wild-type HDAC4 (P56524 whole entry): as the sequence (P56524 whole entry) above
Chain of immobilized fl-HDAC4 (P56524 whole entry): as above
Chain of nuclear MEF2/HDAC4/NCoR1 (P56524 whole entry): as above

SMILES: COc1cccc2c1c(O)c(C(=O)N(C)c1ccc(C(F)(F)F)cc1)c(=O)n2C [TasQ, 4-hydroxy-5-methoxy-N,1-dimethyl-2-oxo-N-[(4-trifluoromethyl)phenyl]-1,2-dihydroquinoline-3-caboxamide]
- EC50 [1]: 1 µM
- effect on cells [2]: the cells die
- oral daily dose giving maximal significant growth inhibition ([3]; castrate NSG mice, 3-week treatment): ≥ 5 mg/kg/day
- thymus weight [4]: 41.6 ± 6 mg
- induction of liver Cyp1a1 ([5]; oral 10 mg/kg, alone and in combination with B(a)P): > 50 fold
- inhibition of growth at end of study (fraction) ([6]; alone or in combination with B(a)P): ~ 2/3
- binding to immobilized fl-NCoR1 [7]: no detectable binding
- effect on enzymatic activity [8]: did not inhibit
- EC50 [9]: 1 µM
- displacement of mutant HDAC4 from immobilized TasQ [10]: not competitively displaced
- sprouting [11]: sprouting prevented
- growth inhibition ([12]; dominant-positive mutant HIF-1α tumors): < 25%
- growth inhibition ([12]; wild type cells): > 80%
- AGR2, AHR Target Genes (Fold Increases by TasQ) [13]: 5.5 fold
- AHR, AHR Target Genes (Fold Increases by TasQ) [13]: 3.0 fold
- ALDOC, HIF-1a Target Genes (Fold Decrease by TasQ) [13]: −1.4 fold
- AR, AR Target Genes (Fold Decrease by TasQ) [13]: −2.0 fold
- BNIP3, HIF-1a Target Genes (Fold Decrease by TasQ) [13]: −1.9 fold
- CDC6, Proliferation Target Genes (Fold Decrease by TasQ) [13]: −1.5 fold
- CDT1, Proliferation Target Genes (Fold Decrease by TasQ) [13]: −2.2 fold
- CYP1B1, AHR Target Genes (Fold Increases by TasQ) [13]: 10.0 fold
- DTYMK, Proliferation Target Genes (Fold Decrease by TasQ) [13]: −1.6 fold
- E2F1, Proliferation Target Genes (Fold Decrease by TasQ) [13]: −2.0 fold
- GDF15, AHR Target Genes (Fold Increases by TasQ) [13]: 2.3 fold
- HILPDA, HIF-1a Target Genes (Fold Decrease by TasQ) [13]: −1.7 fold
- IGF1, HIF-1a Target Genes (Fold Decrease by TasQ) [13]: −11.0 fold
- IGFBP2, HIF-1a Target Genes (Fold Decrease by TasQ) [13]: −1.8 fold
- IGFBP5, HIF-1a Target Genes (Fold Decrease by TasQ) [13]: −18.0 fold
- KLKP1, AR Target Genes (Fold Decrease by TasQ) [13]: −2.3 fold
- LDHA, HIF-1a Target Genes (Fold Decrease by TasQ) [13]: −1.5 fold
- LOX, HIF-1a Target Genes (Fold Decrease by TasQ) [13]: −4.0 fold
- MCM2, Proliferation Target Genes (Fold Decrease by TasQ) [13]: −1.9 fold
- MCM3, Proliferation Target Genes (Fold Decrease by TasQ) [13]: −1.6 fold
- MCM5, Proliferation Target Genes (Fold Decrease by TasQ) [13]: −2.0 fold
- MKI67, Proliferation Target Genes (Fold Decrease by TasQ) [13]: −1.7 fold
- NKX3.1, AR Target Genes (Fold Decrease by TasQ) [13]: −2.3 fold
- NQOI, AHR Target Genes (Fold Increases by TasQ) [13]: 2.9 fold
- P4HA1, HIF-1a Target Genes (Fold Decrease by TasQ) [13]: −1.8 fold
- PDK1, HIF-1a Target Genes (Fold Decrease by TasQ) [13]: −1.7 fold
- PTN, HIF-1a Target Genes (Fold Decrease by TasQ) [13]: −6.1 fold
- SLC45A3, AR Target Genes (Fold Decrease by TasQ) [13]: −3.7 fold
- TIPARP, AHR Target Genes (Fold Increases by TasQ) [13]: 3.4 fold
- TMPRSS2, AR Target Genes (Fold Decrease by TasQ) [13]: −1.9 fold
- TNC, HIF-1a Target Genes (Fold Decrease by TasQ) [13]: −2.5 fold
- TTR, HIF-1a Target Genes (Fold Decrease by TasQ) [13]: −3.8 fold
- VEGFB, HIF-1a Target Genes (Fold Decrease by TasQ) [13]: −1.5 fold
- BHLHE41, MEF-2 Target Genes (Fold Decrease by TasQ) ([13]; section title: upregulation): 2.9 fold
- CA12, MEF-2 Target Genes (Fold Decrease by TasQ) ([13]; section title: upregulation): 2.7 fold
- CAPN2, MEF-2 Target Genes (Fold Decrease by TasQ) ([13]; section title: upregulation): 1.6 fold
- CEACAM1, MEF-2 Target Genes (Fold Decrease by TasQ) ([13]; section title: upregulation): 1.8 fold
- EDN1, MEF-2 Target Genes (Fold Decrease by TasQ) ([13]; section title: upregulation): 15.0 fold
- NR4A1, MEF-2 Target Genes (Fold Decrease by TasQ) ([13]; section title: upregulation): 1.4 fold
- NR4A2, MEF-2 Target Genes (Fold Decrease by TasQ) ([13]; section title: upregulation): 1.8 fold
- S100P, MEF-2 Target Genes (Fold Decrease by TasQ) ([13]; section title: upregulation): 5.7 fold
- THB5, MEF-2 Target Genes (Fold Decrease by TasQ) ([13]; section title: upregulation): 8.0 fold
- serum nadir ([14]; oral 5 mg/kg/d, at 24 hrs): 1.08 ± 0.21 µM
- blood concentration maintained ([14]; oral 10 mg/kg/d): > 1 µM
- patients with complete or partial response (CR/PR) [15, 26]: 12%
- patients with stable disease [15, 26]: 48%
- overall survival (OS) ([15]; phase III, 1 mg/day): not significantly enhanced
- reduction of risk of radiographic progression or death vs. placebo ([15]; phase III, daily oral): 36%
- improvement of median progression-free survival (PFS) ([15]; randomized phase II, mCRPC progressing on ADT): 4.3 months
- pO2 in the TME ([16]; lowered from >3 mmHg): 1.4 +/− 1.0 mmHg
- enhancement of hypoxia [16]: > 2 fold
- lowering of HIF-1α protein in tumors [17]: > 50%
- fold more potent compared to Linomide ([18]; based on serum drug level): ≥ 100 fold
- daily oral dosing required in mice [18]: > 5 mg/kg/day
- fold increase in anti-tumor efficacy compared to Linomide [18]: > 25 fold
- daily oral dosing required for maximal therapeutic activity ([18]; preclinical): ≥ 5 mg/kg
- serum concentration to be maintained for maximal therapeutic activity ([18]; preclinical): > 2 µM
- plasma concentration maintained ([19]; 0.5 mg/d): 0.23 ± 0.03 µM
- steady-state plasma level ([19]; 1 mg/day): 0.42 ± 0.05 µM
- MTD when combined with cabazitaxel and prednisone ([19]; phase 1B): 0.5 mg/day
- maximum tolerated dose (MTD) ([19]; phase I, oral, after dose escalation over 4–6 weeks): 1 mg/day
- dose-limiting toxicity ([19]; phase I): sinus tachycardia and asymptomatic elevation in amylase

- effect on enzymatic activity [8]: inhibited
SMILES: O=C(c1ccc(C(=O)C(F)(F)F)s1)N1CCn2c(-c3ccccc3)cnc2C1 [TFT-PIP]

SMILES: COC(=O)c1c(O)c2c(OC)cccc2n(C)c1=O [ESATA-2]
- growth inhibitor (GI) activity ([3]; oral 10 mg/kg/d over 3 weeks, castrate NSG mice): no GI activity

SMILES: COc1cccc2c1c(O)c(C(=O)N(c1ccc(C(F)(F)F)cc1)C1CCCCC1)c(=O)n2C [ESATA-20]
- fold lower binding affinity than TasQ [20]: 10 fold
- fold lower AHR agonism than TasQ ([1]; cell-based AHR-promoter assay): 10 fold and ~ 10 fold
- EC50 ([1]; read-out: AHR agonist EC50, human cell-based luciferase reporter): 10 µM
- anti-cancer efficacy ([3]; 10 mg/kg/d oral): same significant maximal anti-cancer efficacy as TasQ
- serum concentration at which maximal anti-prostate cancer efficacy is produced ([3]; in vivo): < 2 µM
- fold lower bioavailability than TasQ ([21]; 10 mg/kg oral, DMSO/HPCD vehicle): 5.5 fold
- alpha half-life for tissue distribution ([21]; mouse, in vivo): 3 h
- beta half-life for serum elimination ([21]; mouse, in vivo): 10 to 12 h
- drug bound to serum proteins ([21]; mouse, in vivo): > 98%
- thymus regression ([4]; oral, even at 30 mg/kg/d): lack of induction
- induction of liver Cyp1a1 ([5]; oral, even at 30 mg/kg/d): lack of induction
- fold more potent HDAC4 inhibitor (vs TasQ) [22]: ≥ 5 fold
- change in activity in any of the 68 kinases [23]: < 15%
- water solubility [24]: less water soluble than TasQ

SMILES: c1ccc2c(c1)cc1ccc3cccc4ccc2c1c34 [B(a)P, benzo[a]pyrene]
- thymus weight [4]: 27 ± 8 mg
- therapeutic efficacy [6]: completely lacks therapeutic efficacy

- share of immobilized fl-HDAC4 protein bound [25]: 10–15%
SMILES: CN(C(=O)c1c(O)c2ccccc2n(C)c1=O)c1ccccc1 [Linomide, 4-hydroxy-N,1-dimethyl-2-oxo-N-phenyl-1,2-dihydroquinoline-3-carboxamide]
- side effects in phase III trials ([19]; chronic doses of ≤0.1 mg/kg): several cases of pericarditis and neuropathy
